From ChEMBL document CHEMBL2424594, “Contributions of academic laboratories to the discovery and development of chemical biology tools” (J Med Chem, 2013) come the findings set out here.

One assay concerns the target Cannabinoid receptor 2 (Homo sapiens, UniProt P34972). The assay is described as follows: Binding affinity to CB2 receptor (unknown origin).
The species entered for a further assay is Homo sapiens. The experiment in a line: Selectivity ratio of Ki for CB1 receptor (unknown origin) to Ki for CB2 receptor (unknown origin).
In a further assay the target is Cannabinoid receptor 1 (Homo sapiens, UniProt P21554). The assay is described as follows: Binding affinity to CB1 receptor (unknown origin).
Sequence of Cannabinoid receptor 1 (P21554 whole entry): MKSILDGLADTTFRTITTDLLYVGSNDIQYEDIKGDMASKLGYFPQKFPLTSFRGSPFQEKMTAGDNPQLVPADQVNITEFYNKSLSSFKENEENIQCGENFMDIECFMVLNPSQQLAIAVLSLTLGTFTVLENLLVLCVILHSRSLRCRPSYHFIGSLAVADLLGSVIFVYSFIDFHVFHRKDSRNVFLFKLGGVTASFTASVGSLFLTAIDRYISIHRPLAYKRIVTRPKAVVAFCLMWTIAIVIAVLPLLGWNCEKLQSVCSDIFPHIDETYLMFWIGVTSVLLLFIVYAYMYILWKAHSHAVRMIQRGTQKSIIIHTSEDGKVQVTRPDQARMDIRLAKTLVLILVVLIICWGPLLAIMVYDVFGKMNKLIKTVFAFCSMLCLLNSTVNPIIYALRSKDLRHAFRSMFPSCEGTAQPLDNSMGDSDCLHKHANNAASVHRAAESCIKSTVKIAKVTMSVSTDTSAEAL

Sequence of Cannabinoid receptor 2 (P34972 whole entry): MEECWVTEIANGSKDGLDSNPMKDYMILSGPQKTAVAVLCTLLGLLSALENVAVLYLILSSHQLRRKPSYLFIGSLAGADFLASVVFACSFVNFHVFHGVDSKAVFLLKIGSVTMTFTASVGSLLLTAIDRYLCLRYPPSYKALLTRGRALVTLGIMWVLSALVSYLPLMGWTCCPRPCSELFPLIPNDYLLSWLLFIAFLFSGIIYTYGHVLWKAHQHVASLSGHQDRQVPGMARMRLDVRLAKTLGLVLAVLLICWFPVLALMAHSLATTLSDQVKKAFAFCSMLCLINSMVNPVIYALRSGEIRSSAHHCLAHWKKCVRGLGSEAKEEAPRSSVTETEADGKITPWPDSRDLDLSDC

What is called Ki is the equilibrium dissociation constant of an inhibitor or competing ligand from its target. A lower Ki goes with tighter binding. Turning to `CN1CCCCC1Cn1cc(C(=O)c2cc([N+](=O)[O-])ccc2I)c2ccccc21` (racemic), the inhibitory constant (Ki) at Cannabinoid receptor 2 came to 0.0034 µM; on Cannabinoid receptor 1, 0.28 µM. Moreover, in the assay filed under Homo sapiens, the Ratio Ki was found to be 82.
Regarding `CCCn1cc(C(=O)c2ccc(C)c3ccccc23)c2ccccc21`, in the assay filed under Homo sapiens, the Ratio Ki came out at 173.
